According to patent US20100152303A1, “AGENTS AND METHOD FOR […] […]” (priority 2000, published 2010):

Columns and labels:
ERP57 = experiment: Effect of methoxychlor on ERP57 concentration in rat livers (immunoelectrophoresis of liver microsomes); format: in vivo; settings: male CD rats, gavage in corn oil, 14 days, dosages 10, 50, and 100 mg/kg/day
Description: The purpose of this experiment was to determine the effect of administering varying levels of methoxychlor for 14 days on the levels of the microsomal protein ERP57 in mammalian tissues.
Methoxychlor, potassium chloride, and Tris were purchased from Sigma Chemicals (St. Louis, Mo.). The BCA (Bicinchoninic Acid) Assay kits were purchased from Pierce Chemical Company (Rockford, Ill.). Agarose was purchased from Boehringer Mannheim (Indianapolis, Ind.). Polyclonal antibodies to the ERP57 were developed in laying hens as previously described (Srivastava et al. 1991, J. Biol. Chem. 266: 20337-20344; Chen et al. 1996, Biochemistry 25: 8299-8306).
The animals used in these studies were 150-200 g fed, male, CD rats from Harlan Laboratories. […] The microsomal suspensions were aliquoted and stored at −80° C. until analyzed.
The concentrations of total microsomal protein were then determined via the BCA assay. […]
The concentration of ERP57 in the samples was determined with immunoelectrophoresis. […]
The indicator dye was a combination of nitroblue tetrazolium and 5-bromo-4-chloro-3-indoyl phosphate from Bio Rad (Richmond, Calif.). […] The densities of the stained bands were determined on a flat bed scanner from UMAX (Taiwan, China). The scans were analyzed using NIH Image (version 1.54) on a PowerPC (Apple Computer). The blank for each band was determined from the adjacent, unreacted area in the lane.

[1] = cited from earlier work

Compound: COc1ccc(C(c2ccc(OC)cc2)C(Cl)(Cl)Cl)cc1 [methoxychlor, 1,1,1-trichloro-2,2-bis-(4-methoxyphenyl)ethane]
- relative concentration of ERP57 in the rat liver, normalized by total microsomal protein (ERP57): significant increase
- rat oral LD50 [1]: > 6000 mg/kg
